ChEMBL document CHEMBL1127066, “Discovery and structure-activity relationship of a series of 1-carba-1-dethiacephems exhibiting activity against methicillin-resistant Staphylococcus aureus” (J Med Chem, 1993)

Columns and labels:
Format in all cases: functional
Escherichia coli = assay: In vitro evaluation of antimicrobial activity against Escherichia coli EC14 strain
Enterobacter cloacae = assay: In vitro evaluation of antimicrobial activity against Enterobacter cloacae EB5 strain
Haemophilus influenzae = assay: In vitro antimicrobial activity against Haemophilus influenzae C.L. strain
Klebsiella = assay: In vitro antimicrobial activity against Klebsiella X26 strain
Pseudomonas aeruginosa [1] = assay: Antimicrobial activity against Pseudomonas PS18 strain
Pseudomonas aeruginosa [2] = assay: In vitro antimicrobial activity against Pseudomonas X239 strain
[3] = tested on: Staphylococcus epidermidis; assay: In vitro antimicrobial activity against Staphylococcus epidermidis 222 strain
[4] = tested on: Staphylococcus epidermidis; assay: In vitro antimicrobial activity against Staphylococcus epidermidis 270 strain
Staphylococcus aureus [5] = assay: In vitro antimicrobial activity against Staphylococcus aureus S13E strain
Staphylococcus aureus [6] = assay: In vitro antimicrobial activity against Staphylococcus aureus X400 strain
Streptococcus pneumoniae = assay: In vitro antimicrobial activity against Streptococcus pneumoniae PARK strain
Staphylococcus aureus [7] = assay: In vitro antimicrobial activity against Staphylococcus aureus X1.1 strain

SMILES | MIC (Escherichia coli) | MIC (Enterobacter cloacae) | MIC (Haemophilus influenzae) | MIC (Klebsiella) | MIC (Pseudomonas aeruginosa [1]) | MIC (Pseudomonas aeruginosa [2]) | MIC [3] | MIC [4] | MIC (Staphylococcus aureus [5]) | MIC (Staphylococcus aureus [6]) | MIC (Streptococcus pneumoniae) | MIC (Staphylococcus aureus [7])
Nc1nc(/C(=N\OCCF)C(=O)N[C@@H]2C(=O)N3C(C(=O)[O-])=C(Sc4ncccn4)CC[C@H]23)cs1.[Na+] | 0.125 µg/mL | 1 µg/mL | 0.03 µg/mL | 0.015 µg/mL | > 128 µg/mL | > 128 µg/mL | 4 µg/mL | 8 µg/mL | 32 µg/mL | 128 µg/mL | 0.03 µg/mL | 2 µg/mL
Nc1nc(/C(=N\OCCF)C(=O)N[C@@H]2C(=O)N3C(C(=O)[O-])=C(SC4=NCCS4)CC[C@H]23)cs1.[Na+] | 0.125 µg/mL | 1 µg/mL | < 0.008 µg/mL | 0.015 µg/mL | 64 µg/mL | < 128 µg/mL | 1 µg/mL | 2 µg/mL | 16 µg/mL | 64 µg/mL | < 0.008 µg/mL | 0.5 µg/mL
Cn1nnnc1SC1=C(C(=O)[O-])N2C(=O)[C@@H](NC(=O)/C(=N/OCCF)c3csc(N)n3)[C@H]2CC1.[Na+] | 0.06 µg/mL | 0.5 µg/mL | 0.015 µg/mL | < 0.008 µg/mL | > 128 µg/mL | 16 µg/mL | 2 µg/mL | 4 µg/mL | 128 µg/mL | > 128 µg/mL | 0.015 µg/mL | 0.5 µg/mL
Nc1nc(/C(=N\OCCF)C(=O)N[C@@H]2C(=O)N3C(C(=O)[O-])=C(Sc4nc(C(=O)O)cs4)CC[C@H]23)cs1.[Na+] | 0.25 µg/mL | 4 µg/mL | 0.015 µg/mL | 0.25 µg/mL | 128 µg/mL | > 128 µg/mL | 4 µg/mL | 8 µg/mL | – | > 128 µg/mL | 0.015 µg/mL | 2 µg/mL
Nc1nc(/C(=N\OCCF)C(=O)N[C@@H]2C(=O)N3C(C(=O)[O-])=C(Sc4snc5ccccc45)CC[C@H]23)cs1.[Na+] | 0.25 µg/mL | 0.5 µg/mL | 0.03 µg/mL | 0.03 µg/mL | 16 µg/mL | 32 µg/mL | 0.5 µg/mL | 2 µg/mL | 32 µg/mL | 64 µg/mL | < 0.008 µg/mL | 0.125 µg/mL
CC(=O)c1sc(SC2=C(C(=O)[O-])N3C(=O)[C@@H](NC(=O)/C(=N/OCCF)c4csc(N)n4)[C@H]3CC2)nc1C.[Na+] | 1 µg/mL | 8 µg/mL | 0.06 µg/mL | 0.125 µg/mL | > 128 µg/mL | > 128 µg/mL | 2 µg/mL | 8 µg/mL | 32 µg/mL | 128 µg/mL | < 0.008 µg/mL | 0.5 µg/mL
Cc1nc(SC2=C(C(=O)[O-])N3C(=O)[C@@H](NC(=O)/C(=N/OCCF)c4csc(N)n4)[C@H]3CC2)sc1C.[Na+] | 0.5 µg/mL | 4 µg/mL | 0.015 µg/mL | 0.06 µg/mL | 64 µg/mL | 8 µg/mL | 1 µg/mL | 2 µg/mL | 4 µg/mL | 32 µg/mL | < 0.008 µg/mL | 0.5 µg/mL
Nc1nc(/C(=N\OCCF)C(=O)N[C@@H]2C(=O)N3C(C(=O)[O-])=C(Sc4nc5ccccc5o4)CC[C@H]23)cs1.[Na+] | 0.25 µg/mL | 1 µg/mL | 0.03 µg/mL | 0.015 µg/mL | 32 µg/mL | 32 µg/mL | 1 µg/mL | 2 µg/mL | 2 µg/mL | 64 µg/mL | < 0.008 µg/mL | 0.125 µg/mL
Nc1nc(/C(=N\OCCF)C(=O)N[C@@H]2C(=O)N3C(C(=O)[O-])=C(Sc4nc5c(=O)[nH]c(=O)[nH]c5s4)CC[C@H]23)cs1.[Na+] | 0.06 µg/mL | 1 µg/mL | < 0.008 µg/mL | 0.06 µg/mL | 64 µg/mL | > 128 µg/mL | 2 µg/mL | 8 µg/mL | 16 µg/mL | 128 µg/mL | < 0.008 µg/mL | 2 µg/mL
Nc1ccc2nc(SC3=C(C(=O)[O-])N4C(=O)[C@@H](NC(=O)/C(=N/OCCF)c5csc(N)n5)[C@H]4CC3)sc2c1.[Na+] | 0.25 µg/mL | 2 µg/mL | 0.03 µg/mL | 0.03 µg/mL | 128 µg/mL | > 128 µg/mL | 1 µg/mL | 1 µg/mL | 4 µg/mL | 16 µg/mL | < 0.008 µg/mL | 0.25 µg/mL
Nc1nc(/C(=N\OCCF)C(=O)N[C@@H]2C(=O)N3C(C(=O)[O-])=C(Sc4nnc(O)c(O)n4)CC[C@H]23)cs1.[Na+] | 0.06 µg/mL | 0.5 µg/mL | 0.03 µg/mL | 0.06 µg/mL | > 128 µg/mL | > 128 µg/mL | 8 µg/mL | 32 µg/mL | – | > 128 µg/mL | 0.06 µg/mL | 4 µg/mL
Nc1nc(/C(=N\OCCF)C(=O)N[C@@H]2C(=O)N3C(C(=O)[O-])=C(Sc4ccncc4)CC[C@H]23)cs1.[Na+] | 0.06 µg/mL | 0.5 µg/mL | 0.015 µg/mL | 0.015 µg/mL | 64 µg/mL | 16 µg/mL | 1 µg/mL | 2 µg/mL | 32 µg/mL | 64 µg/mL | < 0.008 µg/mL | 0.5 µg/mL
CCOc1ccc2nc(SC3=C(C(=O)[O-])N4C(=O)[C@@H](NC(=O)/C(=N/OCCF)c5csc(N)n5)[C@H]4CC3)sc2c1.[Na+] | 1 µg/mL | 4 µg/mL | 0.125 µg/mL | 0.06 µg/mL | 128 µg/mL | > 128 µg/mL | 1 µg/mL | 0.5 µg/mL | 8 µg/mL | 8 µg/mL | < 0.008 µg/mL | 0.25 µg/mL
Cc1csc(SC2=C(C(=O)[O-])N3C(=O)[C@@H](NC(=O)/C(=N/OCCF)c4csc(N)n4)[C@H]3CC2)n1.[Na+] | 0.25 µg/mL | 2 µg/mL | < 0.008 µg/mL | < 0.008 µg/mL | 32 µg/mL | 64 µg/mL | 0.5 µg/mL | 4 µg/mL | 4 µg/mL | 64 µg/mL | < 0.008 µg/mL | 0.5 µg/mL
Cn1ccnc1SC1=C(C(=O)[O-])N2C(=O)[C@@H](NC(=O)/C(=N/OCCF)c3csc(N)n3)[C@H]2CC1.[Na+] | 0.5 µg/mL | 4 µg/mL | 0.03 µg/mL | 0.06 µg/mL | > 128 µg/mL | > 128 µg/mL | 8 µg/mL | 32 µg/mL | – | > 128 µg/mL | < 0.008 µg/mL | 4 µg/mL
Nc1nc(/C(=N\OCCF)C(=O)N[C@@H]2C(=O)N3C(C(=O)[O-])=C(Sc4nc(C(=O)OCc5ccccc5)cs4)CC[C@H]23)cs1.[Na+] | 0.25 µg/mL | 2 µg/mL | 0.03 µg/mL | 0.015 µg/mL | 64 µg/mL | 128 µg/mL | 0.5 µg/mL | 2 µg/mL | 8 µg/mL | 32 µg/mL | < 0.008 µg/mL | 0.25 µg/mL
Nc1nc(/C(=N\OCCF)C(=O)N[C@@H]2C(=O)N3C(C(=O)[O-])=C(Sc4nccnc4N)CC[C@H]23)cs1.[Na+] | 0.125 µg/mL | 1 µg/mL | 0.015 µg/mL | 0.015 µg/mL | 16 µg/mL | 128 µg/mL | 1 µg/mL | 4 µg/mL | 32 µg/mL | > 128 µg/mL | < 0.008 µg/mL | 0.5 µg/mL
Nc1nc(/C(=N\OCCF)C(=O)N[C@@H]2C(=O)N3C(C(=O)[O-])=C(Sc4ccccc4)CC[C@H]23)cs1.[Na+] | 0.5 µg/mL | 4 µg/mL | 0.03 µg/mL | 0.03 µg/mL | 64 µg/mL | 128 µg/mL | 2 µg/mL | 2 µg/mL | 64 µg/mL | 128 µg/mL | 0.015 µg/mL | 0.5 µg/mL
CCCCOC(=O)c1csc(SC2=C(C(=O)[O-])N3C(=O)[C@@H](NC(=O)/C(=N/OCCF)c4csc(N)n4)[C@H]3CC2)n1.[Na+] | 0.5 µg/mL | 4 µg/mL | 0.03 µg/mL | 0.03 µg/mL | 128 µg/mL | > 128 µg/mL | 1 µg/mL | 4 µg/mL | 16 µg/mL | 64 µg/mL | < 0.008 µg/mL | 0.5 µg/mL
Nc1nc(/C(=N\OCCF)C(=O)N[C@@H]2C(=O)N3C(C(=O)[O-])=C(Sc4nc5ccccc5[nH]4)CC[C@H]23)cs1.[Na+] | 0.125 µg/mL | 1 µg/mL | 0.015 µg/mL | 0.015 µg/mL | 32 µg/mL | 32 µg/mL | 2 µg/mL | 8 µg/mL | 16 µg/mL | 128 µg/mL | < 0.008 µg/mL | 2 µg/mL
COC(=O)c1sc(SC2=C(C(=O)[O-])N3C(=O)[C@@H](NC(=O)/C(=N/OCCF)c4csc(N)n4)[C@H]3CC2)nc1C.[Na+] | 2 µg/mL | 8 µg/mL | 0.06 µg/mL | 0.125 µg/mL | > 128 µg/mL | > 128 µg/mL | 2 µg/mL | 8 µg/mL | 16 µg/mL | 128 µg/mL | < 0.008 µg/mL | 0.25 µg/mL
Nc1nc(/C(=N\OCCF)C(=O)N[C@@H]2C(=O)N3C(C(=O)[O-])=C(Sc4cccc[n+]4[O-])CC[C@H]23)cs1.[Na+] | 0.125 µg/mL | 2 µg/mL | 0.015 µg/mL | 0.06 µg/mL | 128 µg/mL | > 128 µg/mL | 2 µg/mL | 8 µg/mL | 64 µg/mL | 128 µg/mL | 0.15 µg/mL | 2 µg/mL
CCOc1nn(C)c(SC2=C(C(=O)[O-])N3C(=O)[C@@H](NC(=O)/C(=N/OCCF)c4csc(N)n4)[C@H]3CC2)nc1=O.[Na+] | 0.5 µg/mL | 2 µg/mL | 0.03 µg/mL | 0.06 µg/mL | > 128 µg/mL | 128 µg/mL | 4 µg/mL | 16 µg/mL | 128 µg/mL | > 128 µg/mL | 0.03 µg/mL | 0.5 µg/mL
